According to patent publication US20250115595A1, “INHIBITORS OF HYPOXIA-INDUCIBLE FACTORS” (The Johns Hopkins University, priority 2021, published 2025):

Legend:
[1] = tested on: HIF-regulated angiogenic genes; assay: mRNA expression in hypoxic HUVECs; type: cell-based, human; details: 1 or 10 μM, 4 hours
Excerpt: Vascular endothelial cells also secrete angiogenic mediators that contribute to the progression of diabetic eye disease (Y. Qin et al., Sci Adv 8, eabm1896 (2022)). Exposure of human umbilical vein endothelial cells (HUVECs) to hypoxia induced HIF-1α and HIF-2α protein accumulation, which was inhibited by 32-134D (FIG. 30). […] Of note, ANGPT2 and VE-PTP, two emerging targets for the treatment of diabetic eye disease, are both expressed specifically by vascular cells (G. Fachinger, et al., Oncogene 18, 5948-5953 (1999); P. C. Maisonpierre et al., Science 277, 55-60 (1997)).
Reverse transcription and quantitative real-time PCR: Total RNA was isolated from cultured cells or retinas with PureLink™ RNA Mini Kit (Invitrogen #12183025), and cDNA was prepared with MuLV Reverse Transcriptase (Applied Biosystems). Quantitative real-time PCR was performed with Power SYBR Green PCR Master Mix (Applied Biosystems) and MyiQ Real-Time PCR Detection System (Bio-Rad). Normalization was done using cyclophilin A for mouse tissue and human cell lines.

OIR mice = assay: OIR mouse model, intraperitoneal dosing; type: in vivo
Description: The ability of 32-143D to inhibit ischemia-induced retinal neovascularization was evaluated using the oxygen-induce retinopathy (OIR) model for retinal neovascularization in ischemic retinal diseases, such as retinopathy of prematurity, proliferative diabetic retinopathy, ischemic retinal vein occlusions, or sickle cell retinopathy. Postnatal day 7 (P7) newborn C57BL/6 pups were exposed to hyperoxia (75% O2) for 5 consecutive days before being returned to room air at P12. Beginning at P13, pups were treated with […] IP injections with 32-134D at 20 mg/kg or with vehicle control. 24 hours after the fifth IP injection, at P17, retinal flat mounts were stained with isolectin-B4 to examine the development of retinal neovascularization.
OIR mouse model: OIR experiments were performed as previously described (M. Rodrigues et al., 2013, Diabetes 62, 3863-3873). Briefly, C57BL/6 mice were placed in 75% O2 on P7. On P12, the mice were returned to room air and administered either by IP injection (digoxin and test compound) or by intravitreal injection. Mice with body weight less than 6 g at P17 were excluded from analysis. The data were collected from both males and females and the results combined, as there was no apparent difference between sexes. Representative images for selected time points from a minimum of three independent experiments are shown. Data from 3-8 pups were obtained at each time point.

HIF target genes = assay: RT-qPCR of HIF target gene expression in Hep3B cells; type: cell-based, human
Description: Based on hit compound 11-88, a number of analogs were prepared in which either halogen substitutions to the indole groups were altered or the central thiazole was replaced by imidazole, isoxazole, oxadiazole, oxazole, pyrazinone, pyridazine, pyrazine, pyrazole, pyridine, thiadiazole, triazine, or triazole. […] The bis-bromoindole thiazole 32-134D and the bis-indole thiadiazole 33-063 (FIGS. 1B and 1C) were further characterized with respect to endogenous HIF target gene expression in Hep3B cells. […] For comparison, we tested the effect of PT2385, which inhibited EPO, NDRG1, ANGPTL4, and VEGFA expression but had no effect on CA9, which is consistent with its HIF-2-selective mechanism of action (Wallace E M et al., Cancer Res. 2016; 76(18):5491-5500). None of the compounds had any effect on RPL13A expression, which is neither hypoxia-induced nor HIF-regulated (FIG. 3).
Human Hep3B and mouse Hepa1-6 cells were purchased from ATCC and grown in high-glucose (4.5 mg/ml) Dulbecco's modified Eagle's medium supplemented with 10% (vol/vol) fetal bovine serum and […] at 37° C. in a 5% CO2/95% air incubator (20% O2). Human cell line identity was authenticated by analysis of short tandem repeats, and all cell lines were maintained mycoplasma free, using PCR-based assays conducted at the Johns Hopkins University Genetic Resources Core Facility. Cells were subjected to hypoxia in a controlled atmosphere chamber (PLAS Labs) with ambient gas mixture containing 1% O2 and 5% CO2.
RNA was extracted using TRIzol Reagent (ThermoFisher). Quantitative Real-time PCR was conducted using SYBR Green PCR Master Mix (BioRad) and reactions were run using the BioRad thermal cycler (BioRad). The mRNA expression of target genes was normalized to the expression of 18S rRNA and the fold change (FC) was calculated based on the threshold cycle (Ct) as
FC=2^−Δ(ΔCt) where ΔCt=Cttarget gene−Ct18S rRNA and Δ(ΔCt)=ΔCttreatment−ΔCtcontrol.

Hepa1-6 HCC tumors = assay: Hepa1-6 tumor growth in syngeneic C57L mice; type: in vivo, mouse; details: 32-134D 40 mg/kg/d intraperitoneal
Description: To test whether 32-134D inhibits HCC growth in an immunocompetent mouse model, Hepa1-6 HCC cells were injected into the flank of syngeneic C57L mice (Darlington G J et al., J Natl Cancer Inst. 1980; 64(4):809-819). When tumors became palpable (treatment day 1), mice received daily intraperitoneal injections of 32-134D (40 mg/kg/d) versus vehicle control, or anti-Pd1 antibody versus IgG2a isotype control ([…] on days 1, 4, 7, 10, and 16), or both 32-134D and anti-Pd1. Tumors grew very rapidly in all mice treated with vehicle or IgG2a, necessitating euthanasia on or before day 24 (FIG. 9). Tumors regressed in 5 out of 12 mice treated with anti-Pd1, but two tumors recurred after the last antibody treatment (on day 16) for a tumor eradication rate of only 25%. […] Thus, addition of 32-134D increased the percentage of mice with a durable complete response to anti-Pd1 immune checkpoint blockade from 25% to 67%.
Protocols were approved by the Johns Hopkins University Animal Care and Use Committee and used in accordance with the NIH Guide for the Care and Use of Laboratory Animals (National Research Council, 2011). Female nude mice (NCI Athymic NCr-nu/nu) and male C57L/J mice were purchased from Charles River and The Jackson Laboratory, respectively. Hep3B (8×106) and Hepa1-6 (1×107) cells were implanted subcutaneously in 6- to 8-week-old mice, and tumor volume was calculated: V=abc×0.52. […]

[2] = daily IP injections 20 mg/kg from P13, P17

Brc1ccc2c(-c3csc(-c4c[nH]c5c(Br)cccc45)n3)c[nH]c2c1 [Compound 32-134D, 4-(6-bromo-1H-indol-3-yl)-2-(7-bromo-1H-indol-3-yl)thiazole]
hypoxia-increased ANGPT2 and VEPTP mRNA expression [1]: inhibited | hypoxia-induced VEGF and ANGPTL4 mRNA expression [1]: effectively inhibited | area of avascular retina (OIR mice; [2]): not significantly different | retinal neovascularization (OIR mice; [2]): significant decrease in neovascularization | mRNA expression of key HIF-regulated vasoactive mediators (OIR mice; five consecutive (P12-P16) IP injections, 20 mg/kg, P17): marked reduction | HIF-1α and HIF-2α protein accumulation in retina (OIR mice; single IP injection, as little as 20 mg/kg, P13 and P14): reduction | hypoxia-induced expression of HIF target genes CA9, ANGPTL4, VEGFA, NDRG1 and EPO (HIF target genes): inhibited | mice with tumor eradication (Hepa1-6 HCC tumors): 4 of 12 | tumor growth (Hepa1-6 HCC tumors): marked inhibition of tumor growth in all mice
